Assay results as given in patent US20250333388A1, “OXADIAZOLONE COMPOUNDS AND HERBICIDAL COMPOSITIONS AND USES THEREOF” (SHANDONG BINNONG TECHNOLOGY CO., LTD., priority 2023, published 2025).

Experiments:
Format in all cases: in vivo
[1] = system: crabgrass; test: Test of herbicidal activity, post-seedling stem and leaf spray in greenhouse, crabgrass; settings: for herbicidal activity against crabgrass compared with Control compounds A, B and C: at different doses, summary of Table 5; for Crabgrass (%) control effect: post-seedling stem and leaf spray
Procedure: (§1) Seeds of broadleaf weeds (abutilon, Solanum nigrum) or gramineous weeds (crabgrass, barnyard grass) were sown into nutrient soil in plastic cups, respectively, and then covered with soil, compacted, watered, and further cultivated in a greenhouse by conventional methods. The stems and leaves of the weeds were sprayed when the weeds reached the 2- to 3-leaf stage. The test compounds of the present application were dissolved in acetone respectively, followed by addition of Tween 80. The solution was diluted with a certain amount of water to a certain solubility, and then sprayed onto the plants using a spray tower. The test was repeated three times. After drying naturally in the shade, the plants were put in a greenhouse and managed according to conventional methods. The growth and development of weeds were observed, and the control effect of the test agent on weeds was checked visually periodically, which was expressed by 0-100%, with “0” representing no control effect, and “100%” representing complete killing or severe inhibition.

[2] = system: Solanum nigrum; test: Test of herbicidal activity, post-seedling stem and leaf spray in greenhouse, Solanum nigrum; settings: for herbicidal activity against Solamum nigrum compared with Control compounds A, B and C: at different doses, summary of Table 5; for Solanum nigrum (%) control effect: post-seedling stem and leaf spray
Procedure: as §1

[3] = system: abutilon; test: Test of herbicidal activity, post-seedling stem and leaf spray in greenhouse, abutilon; settings: for herbicidal activity against abutilon compared with Control compounds A, B and C: at different doses, summary of Table 5; for Abutilon (%) control effect: post-seedling stem and leaf spray
Procedure: as §1

[4] = system: barnyard grass; test: Test of herbicidal activity, post-seedling stem and leaf spray in greenhouse, barnyard grass; settings: for herbicidal activity against barnyard grass compared with Control compounds A, B and C: at different doses, summary of Table 5; for Barnyard grass (%) control effect: post-seedling stem and leaf spray
Procedure: as §1

[5] = system: corn; test: Safety testing on corn, stem and leaf spray in greenhouse; settings: for Corn (%) safety (crop damage): stem and leaf spray; for inhibitory effect on corn (crop safety): at different doses, as compared to Control compounds A, B, and C, summary of Table 6
Procedure: (§2) The seeds of corn and rice were sown into nutrient soil in plastic cups, respectively, then covered with soil, compacted, watered, and further cultivated in a greenhouse by conventional methods. The stems and leaves of the crops were sprayed when the crops reached the 2- to 3-leaf stage. The test compounds of the present application were dissolved in acetone, followed by addition of Tween 80. The solution was then diluted with a certain amount of water to a certain solubility, and sprayed onto the plants using a spray tower. The test was repeated three times. After drying naturally in the shade, the plants were put in a greenhouse and managed according to conventional methods. The growth and development of corn and rice were observed, and the safety of the test agent on corn and rice was checked visually periodically. A safety grading standard was represented by 0-100%, with “O” representing no damage to crops, and “100%” representing complete killing or severe inhibition of crops.

[6] = system: rice; test: Safety testing on rice, stem and leaf spray in greenhouse; settings: for Rice (%) safety (crop damage): stem and leaf spray; for inhibitory effect on rice (crop safety): at different doses, as compared to Control compounds A, B, and C, summary of Table 6
Procedure: as §2

[7] = dose 300 g a.i/ha, 0 = no control effect, 100% = complete killing or severe inhibition
[8] = dose 300 g a.i/ha, 0 = no damage to crops, 100% = complete killing or severe inhibition

SMILES | herbicidal activity against crabgrass compared with Control compounds A, B and C [1] | Crabgrass (%) control effect ([1]; dose 37.5 g a.i/ha) | Crabgrass (%) control effect ([1]; dose 75 g a.i/ha) | Crabgrass (%) control effect ([1]; dose 150 g a.i/ha) | Crabgrass (%) control effect ([1]; dose 300 g a.i/ha) | herbicidal activity against Solamum nigrum compared with Control compounds A, B and C [2] | Solanum nigrum (%) control effect ([2]; dose 37.5 g a.i/ha) | Solanum nigrum (%) control effect ([2]; dose 75 g a.i/ha) | Solanum nigrum (%) control effect ([2]; dose 150 g a.i/ha) | Solanum nigrum (%) control effect ([2]; dose 300 g a.i/ha) | herbicidal activity against abutilon compared with Control compounds A, B and C [3] | Abutilon (%) control effect ([3]; dose 37.5 g a.i/ha) | Abutilon (%) control effect ([3]; dose 75 g a.i/ha) | Abutilon (%) control effect ([3]; dose 150 g a.i/ha) | Abutilon (%) control effect [3, 7] | herbicidal activity against barnyard grass compared with Control compounds A, B and C [4] | Barnyard grass (%) control effect ([4]; dose 37.5 g a.i/ha) | Barnyard grass (%) control effect ([4]; dose 75 g a.i/ha) | Barnyard grass (%) control effect ([4]; dose 150 g a.i/ha) | Barnyard grass (%) control effect ([4]; dose 300 g a.i/ha) | further results
Cc1nn(Cc2c(S(C)(=O)=O)ccc(C(=O)C3C(=O)CCCC3=O)c2Cl)c(=O)o1 [Compound 1] | better herbicidal activities | 50% | 75% | 85% | 95% | better herbicidal activities | 60% | 90% | 95% | 100% | better herbicidal activities | 65% | 90% | 98% | 100% | better herbicidal activities | 55% | 80% | 90% | 98% | 
CS(=O)(=O)c1ccc(C(=O)C2C(=O)CCCC2=O)c(Cl)c1 [Control compound A, reference compound] |  | 5% | 25% | 45% | 50% |  | 50% | 70% | 90% | 95% |  | 50% | 80% | 98% | 100% |  | 10% | 30% | 50% | 60% | Corn (%) safety (crop damage) ([5]; dose 37.5 g a.i/ha): 0%; Corn (%) safety (crop damage) ([5]; dose 75 g a.i/ha): 0%; Corn (%) safety (crop damage) ([5]; dose 150 g a.i/ha): 0%; Corn (%) safety (crop damage) [5, 8]: 5%; Rice (%) safety (crop damage) ([6]; dose 37.5 g a.i/ha): 10%; Rice (%) safety (crop damage) ([6]; dose 75 g a.i/ha): 25%; Rice (%) safety (crop damage) ([6]; dose 150 g a.i/ha): 45%; Rice (%) safety (crop damage) ([6]; dose 300 g a.i/ha): 60%
CCS(=O)(=O)c1ccc(C(=O)C2C(=O)CCCC2=O)c(Cl)c1Cn1nc(C)oc1=O [Compound 6] |  |  |  |  |  |  |  |  |  |  |  |  |  |  |  |  |  |  |  |  | inhibitory effect on corn (crop safety) [5]: no significant inhibitory effect; Corn (%) safety (crop damage) ([5]; dose 37.5 g a.i/ha): 0%; Corn (%) safety (crop damage) ([5]; dose 75 g a.i/ha): 0%; Corn (%) safety (crop damage) ([5]; dose 150 g a.i/ha): 0%; Corn (%) safety (crop damage) [5, 8]: 5%; inhibitory effect on rice (crop safety) [6]: no significant inhibitory effect; Rice (%) safety (crop damage) ([6]; dose 37.5 g a.i/ha): 0%; Rice (%) safety (crop damage) ([6]; dose 75 g a.i/ha): 0%; Rice (%) safety (crop damage) ([6]; dose 150 g a.i/ha): 5%; Rice (%) safety (crop damage) ([6]; dose 300 g a.i/ha): 10%
CCOC1=C(C(=O)c2ccc(S(C)(=O)=O)c(Cn3nc(C)oc3=O)c2Cl)C(=O)CCC1 [Compound 32] | better herbicidal activities | 50% | 75% | 85% | 90% | better herbicidal activities | 60% | 90% | 95% | 100% | better herbicidal activities | 65% | 90% | 98% | 100% | better herbicidal activities | 55% | 80% | 90% | 95% | 
Cc1nn(Cc2c(S(=O)(=O)C(C)C)ccc(C(=O)c3c(C)nn(C)c3O)c2Cl)c(=O)o1 [Compound 100, 1,3-dimethyl-4-{2-chloro-3-[(5-methyl-2-oxo-1,3,4-oxadiazol-3 (2H)yl)methyl]-4-isopropylsulfonylbenzoyl}-5-hydroxypyrazole] |  |  |  |  |  |  |  |  |  |  |  |  |  |  |  |  |  |  |  |  | inhibitory effect on corn (crop safety) [5]: no significant inhibitory effect; Corn (%) safety (crop damage) ([5]; dose 37.5 g a.i/ha): 0%; Corn (%) safety (crop damage) ([5]; dose 75 g a.i/ha): 0%; Corn (%) safety (crop damage) ([5]; dose 150 g a.i/ha): 0%; Corn (%) safety (crop damage) [5, 8]: 0%; inhibitory effect on rice (crop safety) [6]: no significant inhibitory effect; Rice (%) safety (crop damage) ([6]; dose 37.5 g a.i/ha): 0%; Rice (%) safety (crop damage) ([6]; dose 75 g a.i/ha): 0%; Rice (%) safety (crop damage) ([6]; dose 150 g a.i/ha): 0%; Rice (%) safety (crop damage) ([6]; dose 300 g a.i/ha): 2%
Cc1nn(Cc2c(S(C)(=O)=O)ccc(C(=O)c3c(C)nn(C)c3OC(=O)c3c(C(F)(F)F)nn(C)c3Cl)c2Cl)c(=O)o1 [Compound 204] | better herbicidal activities | 45% | 64% | 80% | 88% | better herbicidal activities | 52% | 70% | 90% | 97% | better herbicidal activities | 55% | 80% | 90% | 98% | better herbicidal activities | 50% | 70% | 85% | 90% | 
Cc1nn(Cc2c(S(C)(=O)=O)ccc(C(=O)c3c(C)nn(C)c3O)c2Cl)c(=O)o1 [Compound 58] |  |  |  |  |  |  |  |  |  |  |  |  |  |  |  |  |  |  |  |  | inhibitory effect on corn (crop safety) [5]: no significant inhibitory effect; Corn (%) safety (crop damage) ([5]; dose 37.5 g a.i/ha): 0%; Corn (%) safety (crop damage) ([5]; dose 75 g a.i/ha): 0%; Corn (%) safety (crop damage) ([5]; dose 150 g a.i/ha): 0%; Corn (%) safety (crop damage) [5, 8]: 0%; inhibitory effect on rice (crop safety) [6]: no significant inhibitory effect; Rice (%) safety (crop damage) ([6]; dose 37.5 g a.i/ha): 0%; Rice (%) safety (crop damage) ([6]; dose 75 g a.i/ha): 0%; Rice (%) safety (crop damage) ([6]; dose 150 g a.i/ha): 0%; Rice (%) safety (crop damage) ([6]; dose 300 g a.i/ha): 5%
Cc1nn(Cc2c(S(C)(=O)=O)ccc(C(=O)c3c(C)nn(C)c3OC(=O)c3cn(C)nc3C(F)(F)F)c2Cl)c(=O)o1 [Compound 166] | better herbicidal activities | 50% | 75% | 80% | 85% | better herbicidal activities | 60% | 85% | 90% | 93% | better herbicidal activities | 65% | 88% | 92% | 95% | better herbicidal activities | 55% | 80% | 85% | 90% | 
Cc1nn(Cc2c(S(C)(=O)=O)ccc(C(=O)c3c(C)nn(C)c3OC(=O)c3cnn(C)c3Cl)c2Cl)c(=O)o1 [Compound 218] | better herbicidal activities | 45% | 65% | 80% | 85% | better herbicidal activities | 50% | 70% | 90% | 95% | better herbicidal activities | 55% | 80% | 90% | 95% | better herbicidal activities | 50% | 70% | 85% | 90% | 
